Experimental data published in patent US6436660B1, “Identification of novel antimicrobial agents using metabolic oxidation-reduction indicator dyes” (XOMA Technology Ltd., priority 1999, dated 2002).

Experiments:
Candida albicans = test: Effect of antifungal compounds on fungal cells with Alamar Blue (fluorimetric metabolic oxidation-reduction indicator dye assay); format: cell-based; settings: for characteristic pattern or "fingerprint": increased metabolic oxidation-reduction activity (Alamar Blue fluorescence) relative to untreated control cells: Candida albicans 1x10^7 cells/mL, test compound two-fold dilutions from 64 μg/mL, 37° C., readings 0-60 min, best seen at 15 min (FIG. 2); for characteristic "fingerprint" with metabolic oxidation-reduction indicator dye (statement on negative controls): for fungal cells, summary statement
Description: Alamar Blue™ is an indicator dye formulated to measure quantitatively the proliferation of a variety of human or animal cells, bacteria, or fungi. It consists of an oxidation-reduction (REDOX) indicator that yields colorimetric and fluorimetric changes in response to metabolic activity (electron transport activity).
The relative effect of two BPI-derived peptides, XMP.391 (SEQ ID NO: 4) and XMP.445 (SEQ ID NO: 6), and the antifungal compound amphotericin B on fungal cells with the metabolic oxidation-reduction indicator dye Alamar Blue™ [AccuMed Int'l, Westlake, Ohio] was assessed as follows.
Candida albicans were grown in 75 mL Sabouraud's dextrose broth (SDB) for 5 hours at 30° C. Cells were pelleted by centrifiguation for 5 minutes in a Sorvall RT6000B centrifuge at 3,000 rpm (1500×g) and resuspended in 15 mL of fresh SDB. A 1:10 dilution of this suspension was used for an OD570 nm detennination. One OD unit is equivalent to 1×10^7 CFU/mL. Cells were adjusted to a concentration of 2×10^7 CFU/mL.
Test compounds XMP.391, XMP.445 and Amphotericin B (AMB) were two-fold serially diluted in SDB from a concentration of 128 μg/mL in a 96-well plate. This was done in triplicate with each well containing a volume of 100 μL. An equal volume of the yeast suspension was added to each well.
Alamar Blue™ was added at 20 μL per well and the initial (t=0) fluorescence readings were performed in a Molecular Devices SpectraMax Gemini plate reader. The excitation wavelength was 544 nm and the emission wavelength was measured at 590 nm. The plate was incubated at 37° C. and additional readings at 15, 30, 45 and 60 minutes were performed. Metabolic oxidation-reduction activity is detected by an increase in fluorescence emission.

[1] = background statement on narrow therapeutic window; cited from earlier work
bacterial growth = settings: background statement on narrow therapeutic window; cited from earlier work
[2] = system: E. coli (ATCC strain 8739); test: Effect of antibacterial compounds on bacteria with Alamar Blue (colorimetric OD595 assay); format: cell-based; settings: for bacteria; summary statement
Description: E. coli (ATCC strain 8739) was incubated at 37° C. in 5 mL cation-adjusted Mueller Hinton Broth (CAMHB) for 3 hours to attain log phase growth. The bacteria were pelleted in a Sorvall RT6000B centrifuge for 5 minutes at 3,000 rpm (1.500×g ) and resuspended in 5 mL of fresh CAMHB. A 1:10 dilution was performed for an OD570 nm determination. One OD unit equals 1.25×10^9 CFU/mL. The bacterial suspension was adjusted to 1×10^8 CFU/mL.
This was done in triplicate with each well containing a volume of 100 μL. An equal volume of the bacterial suspension was added to each well. […] Alamar Blue™ was added at 20 μL per well. The “Blank” contained media and Alamar Blue™ only, without cells.
OD595 nm readings were performed in a Molecular Devices plate reader. This required that samples be centrifuged to pellet bacteria and related debris which would contribute to the OD595 nm reading. 150 μL were removed from the wells at various timepoints, centrifuged (2 minutes, 2,000 rpm) and 50 μL of supernatant was carefully transferred to a fresh 96-well plate for the reading. Timepoints were read at 0, 30, 60, 90 and 120 minutes. Metabolic oxidation-reduction activity is detected by an increase in OD in this colorimetric assay.

Molecule | characteristic pattern or "fingerprint": increased metabolic oxidation-reduction activity (Alamar Blue fluorescence) relative to untreated control cells (Candida albicans) | characteristic "fingerprint" with metabolic oxidation-reduction indicator dye (statement on negative controls) (Candida albicans) | also measured
XMP.391: BPI-derived peptide, domain III-derived, SEQ ID NO: 4; structure described in Table 1 of U.S. Pat. No. 5,858,974 (KVGWLIQLFHKK) | known to produce this characteristic pattern |  | 
gentamicin |  |  | concentration that produces a toxic effect [1]: 12 µg/mL; concentration required to produce a therapeutic effect (bacterial growth): 8 µg/mL
antimycin |  | do not exhibit the characteristic “fingerprint,” | 
C[C@@H]1[C@H](O)[C@@H](C)/C=C/C=C/C=C/C=C/C=C/C=C/C=C/[C@H](O[C@@H]2O[C@H](C)[C@@H](O)[C@H](N)[C@@H]2O)C[C@@H]2O[C@](O)(C[C@@H](O)C[C@@H](O)[C@H](O)CC[C@@H](O)C[C@@H](O)CC(=O)O[C@H]1C)C[C@H](O)[C@H]2C(=O)O [amphotericin B] | did not show the “fingerprint.” | do not exhibit the characteristic “fingerprint,” | 
OC(Cn1cncn1)(Cn1cncn1)c1ccc(F)cc1F [fluconazole] |  | do not exhibit the characteristic “fingerprint,” | 
polymyxin |  |  | characteristic "fingerprint" with metabolic oxidation-reduction indicator dye (statement on negative controls) [2]: do not exhibit the characteristic “fingerprint,”
